Assay results as given in paper PMC11154582, “Modeling the Blood-Brain Barrier Permeability of Potential Heterocyclic Drugs via Biomimetic IAM Chromatography Technique Combined with QSAR Methodology” (Molecules, 2024).

assay: Biomimetic IAM chromatography (log kw, IAM); format: physicochemical; settings: IAM.PC.DD2 column, buffered acetonitrile, pH 7.4, 25 °C, extrapolated to buffer
Description: High performance liquid chromatography (HPLC) measurements were performed on a Shimadzu Vp liquid chromatographic system (Shimadzu, Izabelin, Poland). This instrument was equipped with LC 10AT pump, SPD 10A ultraviolet-visible detector, SCL 10A system controller, CTO-10 AS chromatographic oven, and a Rheodyne injector valve with a 20 μL loop. As the stationary phase Regis IAM.PC.DD2 column, 100 × 4.6 mm i.d., 10 μm (Morton Grove, IL, USA) was applied.
Buffered acetonitrile mixtures were used as effluents. Acetonitrile concentration, expressed as a volume fraction, was varied within a range from 0.2 to 0.5, with a constant step of 0.1. The buffer was prepared from 0.01 mol L^−1 solutions of Na2HPO4 and citric acid, and a pH value of 7.4 was fixed before mixing with an organic modifier. The flow rate was 1.3 mL min^−1. Each compound sample was dissolved in acetonitrile to obtain a concentration of 0.005 mg mL^−1, and each solute peak was detected under ultraviolet light at a wavelength of λmax = 254 nm. Each measurement was performed at a constant temperature (25 °C) at least three times. The dead time values were measured from sodium chloride peaks.
From among 126 heterocyclic compounds evaluated in this work (Table 1), 89 structures have been investigated previously on the IAM column: these are molecules from groups III, IV, V, VI, VII, VIII, IX, XI, XIII, and XV [21, 22, 23]. The remaining ones, i.e., 37 compounds from groups I, II, X, XII and XIV, were tested in this study for the first time using the biomimetic IAM chromatographic technique. To calculate the log kw values (i.e., the logarithms of retention parameter in the buffer as the mobile phase), the retention parameters, logs k (k = (tr − t0)/t0; where tr is the solute retention time, and t0 is a dead time), that were measured for all tested compounds, were used according to Soczewiński-Wachtmeister’s equation (Equation (5)): (5) log k=logtr−t0/t0=log kw−sφ where φ denotes the volume fraction of acetonitrile as organic modifier in the mobile phase, and kw means the retention parameter corresponding to buffer as the mobile phase. The log kw values were evaluated as linear regression coefficients (Table 2).

Row | SMILES | log kw, IAM
1 | c1ccc(N2CCn3cnnc32)cc1 [Compound 1] | 0.10
2 | Cc1ccc(N2CCn3cnnc32)cc1 [Compound 2] | 0.41
3 | COc1ccc(N2CCn3cnnc32)cc1 [Compound 3] | 0.10
4 | Clc1cccc(N2CCn3cnnc32)c1 [Compound 4] | 0.64
5 | Clc1ccc(N2CCn3cnnc32)cc1Cl [Compound 5] | 1.18
6 | c1ccc(OCc2nnc3n2CCN3c2ccccc2)cc1 [Compound 6] | 0.11
7 | COc1ccc(N2CCn3c(COc4ccc(Cl)cc4)nnc32)cc1 [Compound 7] | 0.06
8 | Clc1ccc(OCc2nnc3n2CCN3c2ccc(Cl)cc2)cc1 [Compound 10] | 1.86
9 | Cc1cc(Cl)ccc1OCc1nnc2n1CCN2c1ccc(Cl)cc1 [Compound 11] | 2.14
10 | Clc1ccc(N2CCn3c(COc4ccc(Cl)cc4Cl)nnc32)cc1 [Compound 12] | 2.25
11 | Clc1ccc(N2CCn3c(COc4cc(Cl)c(Cl)cc4Cl)nnc32)cc1 [Compound 14] | 2.55
12 | NNC(=O)Cc1nnc2n(c1=O)CCN2c1ccccc1 [Compound 56] | 0.40
13 | Cc1ccc(N2CCn3c2nnc(CC(=O)NN)c3=O)cc1 [Compound 57] | 0.13
14 | CCOc1ccc(N2CCn3c2nnc(CC(=O)NN)c3=O)cc1 [Compound 59] | 0.06
15 | NNC(=O)Cc1nnc2n(c1=O)CCN2c1ccc(Cl)cc1 [Compound 60] | 0.32
16 | O=c1c(-c2cccs2)nnc2n1CCN2c1ccccc1 [Compound 72] | 1.64
17 | Cc1ccccc1N1CCn2c1nnc(-c1cccs1)c2=O [Compound 73] | 1.54
18 | Cc1ccc(N2CCn3c2nnc(-c2cccs2)c3=O)cc1 [Compound 74] | 1.94
19 | Cc1cccc(N2CCn3c2nnc(-c2cccs2)c3=O)c1C [Compound 75] | 1.17
20 | COc1ccccc1N1CCn2c1nnc(-c1cccs1)c2=O [Compound 76] | 1.50
21 | O=c1c(-c2cccs2)nnc2n1CCN2c1ccccc1Cl [Compound 77] | 1.75

assay: not given; settings: IAM column; ref [21]; cited from earlier work

Row | SMILES | log kw, IAM
22 | Cc1ccc(N2CCn3c2nnc(C(=O)NN)c3=O)cc1 [Compound 52] | 0.16

same assay, conditions: IAM column; ref [22]; cited from earlier work

Row | SMILES | log kw, IAM
23 | Cc1ccc(N2CCn3c2nnc(C(F)(F)F)c3=O)cc1 [Compound 17] | 1.25
24 | O=c1c(C(F)(F)F)nnc2n1CCN2c1cccc(Cl)c1 [Compound 20] | 1.66
25 | O=c1c(C(F)(F)F)nnc2n1CCN2c1ccc(Cl)cc1 [Compound 21] | 1.58
26 | O=c1c(C(F)(F)F)nnc2n1CCN2c1ccc(Cl)c(Cl)c1 [Compound 22] | 2.29
27 | CC(C)c1nnc2n(c1=O)CCN2c1ccccc1 [Compound 29] | 0.76
28 | Cc1ccc(N2CCn3c2nnc(C(C)C)c3=O)cc1 [Compound 30] | 1.05
29 | CC(C)c1nnc2n(c1=O)CCN2c1cccc(Cl)c1 [Compound 32] | 1.49
30 | CCOC(=O)c1nnc2n(c1=O)CCN2c1ccccc1 [Compound 35] | 0.48
31 | CCOC(=O)c1nnc2n(c1=O)CCN2c1ccc(C)cc1 [Compound 36] | 1.93
32 | CCOC(=O)c1nnc2n(c1=O)CCN2c1ccc(Cl)cc1 [Compound 38] | 1.12

same assay, conditions: IAM column; ref [23]; cited from earlier work

Row | SMILES | log kw, IAM
33 | CCc1nnc2n(c1=O)CCN2c1ccccc1 [Compound 23] | 0.55
34 | CCc1nnc2n(c1=O)CCN2c1ccc(C)cc1 [Compound 24] | 1.00
35 | CCc1nnc2n(c1=O)CCN2c1ccccc1Cl [Compound 25] | 0.80
36 | CCc1nnc2n(c1=O)CCN2c1cccc(Cl)c1 [Compound 26] | 0.84
37 | CCc1nnc2n(c1=O)CCN2c1ccc(Cl)cc1 [Compound 27] | 1.24
38 | COC(=O)Cc1nnc2n(c1=O)CCN2c1ccccc1 [Compound 40] | 0.81
39 | CCOc1ccc(N2CCn3c2nnc(CC(=O)OC)c3=O)cc1 [Compound 43] | 1.42
40 | COC(=O)Cc1nnc2n(c1=O)CCN2c1ccc(Cl)cc1 [Compound 44] | 1.82
41 | CCOC(=O)Cc1nnc2n(c1=O)CCN2c1ccc(C)cc1 [Compound 46] | 1.70
42 | CCOC(=O)Cc1nnc2n(c1=O)CCN2c1ccccc1OC [Compound 47] | 0.91
43 | CCOC(=O)Cc1nnc2n(c1=O)CCN2c1ccc(Cl)cc1 [Compound 49] | 2.11
44 | O=c1c(-c2ccco2)nnc2n1CCN2c1ccccc1 [Compound 61] | 1.29
45 | Cc1ccccc1N1CCn2c1nnc(-c1ccco1)c2=O [Compound 62] | 0.96
46 | Cc1ccc(N2CCn3c2nnc(-c2ccco2)c3=O)cc1 [Compound 63] | 1.69
47 | Cc1cccc(N2CCn3c2nnc(-c2ccco2)c3=O)c1C [Compound 64] | 1.42
48 | COc1ccccc1N1CCn2c1nnc(-c1ccco1)c2=O [Compound 65] | 1.11
49 | COc1ccc(N2CCn3c2nnc(-c2ccco2)c3=O)cc1 [Compound 66] | 1.19
50 | O=c1c(-c2ccco2)nnc2n1CCN2c1ccccc1Cl [Compound 67] | 1.27
51 | O=c1c(-c2ccco2)nnc2n1CCN2c1cccc(Cl)c1 [Compound 68] | 2.08
52 | O=c1c(-c2ccco2)nnc2n1CCN2c1ccc(Cl)cc1 [Compound 69] | 2.02
53 | O=c1c(-c2ccco2)nnc2n1CCN2c1ccc(Cl)c(Cl)c1 [Compound 70] | 3.23
54 | O=c1c(-c2ccco2)nnc2n1CCN2c1c(Cl)cccc1Cl [Compound 71] | 1.70
55 | O=c1c(-c2ccccc2)nnc2n1CCN2c1ccccc1 [Compound 81] | 1.91
56 | Cc1ccccc1N1CCn2c1nnc(-c1ccccc1)c2=O [Compound 82] | 1.53
57 | Cc1ccc(N2CCn3c2nnc(-c2ccccc2)c3=O)cc1 [Compound 84] | 2.22

Row | SMILES | log kw, IAM
58 | COc1ccccc1N1CCn2c1nnc(-c1ccccc1)c2=O [Compound 85] | 1.47
59 | CCOc1ccc(N2CCn3c2nnc(-c2ccccc2)c3=O)cc1 [Compound 87] | 2.14
60 | Cc1cccc(N2CCn3c2nnc(-c2ccccc2)c3=O)c1C [Compound 88] | 1.85
61 | O=c1c(-c2ccccc2)nnc2n1CCN2c1cccc(Cl)c1 [Compound 90] | 2.64
62 | O=c1c(Cc2ccccc2)nnc2n1CCN2c1ccccc1 [Compound 102] | 3.26
63 | O=c1c(Cc2cccc(Cl)c2)nnc2n1CCN2c1ccccc1 [Compound 104] | 2.48
64 | O=c1c(Cc2ccc(Cl)cc2)nnc2n1CCN2c1ccccc1 [Compound 105] | 2.39
65 | Cc1ccc(N2CCn3c2nnc(Cc2ccccc2)c3=O)cc1 [Compound 106] | 2.15
66 | Cc1ccc(Cc2nnc3n(c2=O)CCN3c2ccc(C)cc2)cc1 [Compound 107] | 2.51
67 | Cc1ccc(N2CCn3c2nnc(Cc2cccc(C)c2)c3=O)cc1 [Compound 108] | 2.59
68 | Cc1ccc(N2CCn3c2nnc(Cc2cccc(Cl)c2)c3=O)cc1 [Compound 110] | 2.78
69 | Cc1ccc(N2CCn3c2nnc(Cc2ccc(Cl)cc2)c3=O)cc1 [Compound 111] | 2.81
70 | CCOc1ccc(N2CCn3c2nnc(Cc2ccc(C)cc2)c3=O)cc1 [Compound 113] | 2.43
71 | CCOc1ccc(N2CCn3c2nnc(Cc2cccc(Cl)c2)c3=O)cc1 [Compound 115] | 2.73
72 | Cc1ccccc1N1CCn2c1nnc(Cc1ccccc1Cl)c2=O [Compound 117] | 2.02
73 | O=c1c(Cc2ccccc2)nnc2n1CCN2c1ccc(Cl)cc1 [Compound 118] | 2.52
74 | O=c1c(Cc2ccccc2Cl)nnc2n1CCN2c1ccc(Cl)cc1 [Compound 119] | 3.22
75 | O=c1c(Cc2cccc(Cl)c2)nnc2n1CCN2c1ccc(Cl)cc1 [Compound 120] | 3.15
76 | O=c1c(Cc2ccc(Cl)cc2)nnc2n1CCN2c1ccc(Cl)cc1 [Compound 121] | 3.17
77 | O=c1c(CCc2ccccc2)nnc2n1CCN2c1ccccc1 [Compound 122] | 2.07
78 | Cc1ccc(N2CCn3c2nnc(CCc2ccccc2)c3=O)cc1 [Compound 123] | 2.41
79 | O=c1c(CCc2ccccc2)nnc2n1CCN2c1ccccc1Cl [Compound 124] | 1.81
80 | O=c1c(CCc2ccccc2)nnc2n1CCN2c1ccc(Cl)cc1 [Compound 125] | 2.68
81 | O=c1c(CCc2ccccc2)nnc2n1CCN2c1ccc(Cl)c(Cl)c1 [Compound 126] | 3.40
